Where two headings read alike, the source gives them in different places.
Row | Compound | ring closure, yield of all isomers (from C=CCCS(=O)(=O)C[C@@H](C)C(=O)N[C@@H](Cc1cccc(CC=C)c1)[C@@H]1C[C@@H](C)C(=O)O1, rcm bond, benzylidene(1,3-dimesitylimidazolidin-2-ylidene)(tricyclohexylphosphine)ruthenium dichloride (Grubbs II), dichloromethane, 60.0 °C, 2.5 h) | ring closure, yield of all isomers (from CCCCNC(=O)[C@H](C)C[C@H](O)[C@H](Cc1cccc(OCCCCC(=O)O)c1)NC(=O)[C@H](C)N, amide bond, BOP, diisopropylethylamine, DMF, 7.1 mM, 25.0 °C, 16.0 h)
1 | C[C@@H]1CS(=O)(=O)CCC=CCc2cccc(c2)C[C@@H]([C@@H]2C[C@@H](C)C(=O)O2)NC1=O | 74.7% | 
2 | CCCCNC(=O)[C@H](C)C[C@H](O)[C@@H]1Cc2cccc(c2)OCCCCC(=O)N[C@@H](C)C(=O)N1 (relative stereo) |  | 1.7%

Source: patent US20080070885
